Test results published in US4748161A, “Triterpenyl esters of organic acids and hypolipidemic agents composed of them” (Amano Pharmaceutical Co., Ltd., priority 1984, dated 1988).

Tests used:
[1] = system: serum lipids and serum lipid hydroperoxide; assay: Pharmacological test method A for anti-hyperlipidemic activity (serum lipids, 2 weeks feeding); format: in vivo, male Wistar strain rats
How it was run: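 Male Wistar rats (100±lg, 10 per group) fed 10 g/day for 2 weeks of a 1% cholesterol/0.5% cholic acid diet, test groups with 1% each of cycloartenol, 24-methylenecycloartanol and cyclobranol. After 16 h fast, aortic blood serum assayed enzymatically/colorimetrically for TC, HDL-C, TG, PL, LPO.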

male ddy strain mice = assay: Acute toxicity test, mice, oral; format: in vivo, mouse (male ddy strain); conditions: 0.1 to 5 g/Kg; for Mortality: 2 weeks observation
Protocol: (§1) Acute toxicity tests were conducted using 5 male ddy strain mice (30±2 g) and 5 male Wistar strain rats (100±2 g) for each compound by oral administration.
(§2) The above 66 compounds of esters, and as control drugs, cycloartenol, 24-methylenecycloartanol, cyclobranol, and γ-orizanol were given forcibly to the above-mentioned mice and rats by means of a throat explorer rod in doses of 0.1 to 5 g/Kg for mice and 2 to 6 g/Kg for rats. During the test, the temperature of the animal room was kept at 22° to 23 ° C. […] In the inspection conducted after 2-week observation, no macroscopic lesion was found in any part of main organs. Thus the compound of the invention has very low toxicity, so that the LD50 value could not determined.

male Wistar strain rats = assay: Acute toxicity test, rats, oral; format: in vivo, rat (male Wistar strain); conditions: 2 to 6 g/Kg; for Mortality: 2 weeks observation
Protocol: as §1, §2

serum TC = conditions: 1% added to diet containing 0.5% of cholesterol; cited from earlier work

| SMILES | AI change [1] | Symptoms of toxicosis (male ddy strain mice) | Mortality (male ddy strain mice) | Symptoms of toxicosis (male Wistar strain rats) | Mortality (male Wistar strain rats) | percentage of TC lowering (serum TC) [%] |
| --- | --- | --- | --- | --- | --- | --- |
| CC(C)=CCC[C@@H](C)[C@H]1CC[C@@]2(C)[C@@H]3CC[C@H]4C(C)(C)[C@@H](O)CC[C@@]45C[C@@]35CC[C@]12C [Sample 1, cycloartenol] | showed tendencies to decrease it | no symptom of toxicosis appeared | none of the animals died | no symptom of toxicosis appeared | none of the animals died | 13.7 |
| CC(C)=C(C)CCC(C)C1CCC2(C)C3CCC4C(C)(C)C(O)CCC45CC35CCC12C (centres unmarked) [Sample 2, cyclobranol] | showed tendencies to decrease it | no symptom of toxicosis appeared | none of the animals died | no symptom of toxicosis appeared | none of the animals died | – |
| C=C(CCC(C)C1CCC2(C)C3CCC4C(C)(C)C(O)CCC45CC35CCC12C)C(C)C (centres unmarked) [Sample 3, 24-methylenecycloartanol] | only a slight tendency to increase | no symptom of toxicosis appeared | none of the animals died | no symptom of toxicosis appeared | none of the animals died | 10.2 |
